Measured values reported in PubChem BioAssay (NCI).
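Briefly, cells in 96-well plates were exposed to five compound concentrations for 48 h, and endpoints were estimated by linear interpolation. GI50 marks 50% less growth. TGI: total growth inhibition.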

Experiments:
Assay in all cases: DTP human tumour cell line panel, 48 h
MDA-MB-435 = system: MDA-MB-435
MOLT-4 leukemia = system: MOLT-4 leukemia
NCI-H23 lung = system: NCI-H23 lung
NCI-H460 lung = system: NCI-H460 lung
NCI-H522 lung = system: NCI-H522 lung
OVCAR-4 ovarian = system: OVCAR-4 ovarian
OVCAR-5 ovarian = system: OVCAR-5 ovarian
OVCAR-8 ovarian = system: OVCAR-8 ovarian
PC-3 prostate = system: PC-3 prostate
RPMI-8226 leukemia = system: RPMI-8226 leukemia
RXF 393 renal = system: RXF 393 renal
SF-268 CNS = system: SF-268 CNS
SF-295 CNS = system: SF-295 CNS
SF-539 CNS = system: SF-539 CNS
SK-MEL-2 melanoma = system: SK-MEL-2 melanoma
SK-MEL-28 melanoma = system: SK-MEL-28 melanoma
SK-MEL-5 melanoma = system: SK-MEL-5 melanoma
SK-OV-3 ovarian = system: SK-OV-3 ovarian
SN12C renal = system: SN12C renal
SNB-19 CNS = system: SNB-19 CNS
SNB-75 CNS = system: SNB-75 CNS
SR leukemia = system: SR leukemia
SW-620 colon = system: SW-620 colon
TK-10 renal = system: TK-10 renal
U251 CNS = system: U251 CNS
UACC-257 melanoma = system: UACC-257 melanoma
UACC-62 melanoma = system: UACC-62 melanoma
UO-31 renal = system: UO-31 renal

## COc1cc2c(cc1OC)C(Sc1ccc(F)cc1)c1c(nc(N)c(C#N)c1N)O2 (centres undefined)
MDA-MB-435
  TGI: 2.54 µM
MOLT-4 leukemia
  GI50: 0.382 µM
  TGI: > 100 µM
NCI-H23 lung
  GI50: 1.27 µM
  TGI: 2.85 µM
NCI-H460 lung
  GI50: 1.27 µM
  TGI: 2.96 µM
NCI-H522 lung
  GI50: 1.25 µM
  TGI: 2.53 µM
OVCAR-4 ovarian
  GI50: 1.54 µM
  TGI: 2.93 µM
OVCAR-5 ovarian
  GI50: 1.65 µM
  TGI: 3.11 µM
OVCAR-8 ovarian
  GI50: 1.26 µM
  TGI: 2.54 µM
PC-3 prostate
  GI50: 1.05 µM
  TGI: 2.47 µM
RPMI-8226 leukemia
  GI50: 0.754 µM
RXF 393 renal
  GI50: 0.751 µM
  TGI: 2.03 µM
SF-268 CNS
  GI50: 1.39 µM
  TGI: 2.9 µM
SF-295 CNS
  GI50: 1.62 µM
  TGI: 3 µM
SF-539 CNS
  GI50: 1.19 µM
  TGI: 2.49 µM
SK-MEL-2 melanoma
  GI50: 0.859 µM
  TGI: 2.14 µM
SK-MEL-28 melanoma
  GI50: 0.982 µM
  TGI: 2.34 µM
SK-MEL-5 melanoma
  GI50: 1.57 µM
  TGI: 2.95 µM
SK-OV-3 ovarian
  GI50: 1.74 µM
  TGI: 3.17 µM
SN12C renal
  GI50: 1.13 µM
  TGI: 2.36 µM
SNB-19 CNS
  GI50: 1.25 µM
  TGI: 2.54 µM
SNB-75 CNS
  GI50: 1.33 µM
  TGI: 2.7 µM
SR leukemia
  GI50: 0.281 µM
  TGI: > 100 µM
SW-620 colon
  GI50: 0.709 µM
  TGI: 2.04 µM
TK-10 renal
  GI50: 1.47 µM
  TGI: 2.8 µM
U251 CNS
  GI50: 0.738 µM
  TGI: 2.08 µM
UACC-257 melanoma
  GI50: 1.34 µM
  TGI: 2.67 µM
UACC-62 melanoma
  GI50: 1.2 µM
  TGI: 2.5 µM
UO-31 renal
  GI50: 0.511 µM
  TGI: 1.93 µM
